Measured values as given in patent publication US20090306171A1, “INDOLE COMPOUNDS HAVING C4-AMIDE SUBSTITUENTS AND USE THEREOF AS PHOSPHOLIPASE-A2 INHIBITORS” (priority 2005, published 2009).

Experiments:
Stability at low pH = type: physicochemical
Caco-2 monolayers = assay: Example 6B Caco-2 permeability study; type: in vitro ADME, human; conditions: for apparent permeability: apical to basolateral, Caco-2 monolayers
Method: The culture medium was refreshed every 48 hours.
Papp=(dQ/dt)×(1/C0)×(1/A)

[1] = Example 6C pharmokinetic study (IV and oral); type: in vivo, mice; conditions: 30 mg/kg oral
Source text: This example characterized ILY-4001 [2-(3-(2-amino-2-oxoacetyl)-1-(biphenyl-2-ylmethyl)-2-methyl-1H-indol-4-yloxy)acetic acid], alternatively referred to herein as methyl indoxam, with respect to activity, as determined by IC50 assay (Example 6A), with respect to cell absorption, as determined by in-vitro Caco-2 assay (Example 6B) and with respect to bioavailability, as determined using in-vivo mice studies (Example 6C).
This example evaluated the bioavailability of ILY-4001 [2-(3-(2-amino-2-oxoacetyl)-1-(biphenyl-2-ylmethyl)-2-methyl-1H-indol-4-yloxy)acetic acid], alternatively referred to herein as methyl indoxam. […]
Bioavailability was calculated as a ratio of AUC-oral/AUC-intravenous (IV). To determine this ratio, a first set of subject animals were given a measured intravenous (IV) dose of ILY-4001, followed by a determination of ILY-4001 levels in the blood at various time points after administration (e.g., 5 minutes through 24 hours). Another second set of animals was similarly dosed using oral administration, with blood levels of ILY-4001 determined at various time points after administration (e.g., 30 minutes through 24 hours). The level of ILY-4001 in systemic circulation were determined by generally accepted methods (for example as described in Evans, G., A Handbook of Bioanalysis and Drug Metabolism. Boca Raton, CRC Press (2004)). […]

[2] = Example 5A body weight gain, mice on high fat/high sucrose diabetogenic diet; type: in vivo; conditions: for body weight gain compared to the wild-type control group: week 4 and week 10
Method: (§1) ILY-4001 (FIG. 2) was evaluated as a PLA2 IB inhibitor in a set of experiments using wild-type mice and genetically deficient PLA2 (−/−) mice (also referred to herein as PLA2 knock-out (KO) mice). In these experiments, wild-type and PLA2 (−/−) mice were maintained on a high fat/high sucrose diet, details of which are described below.
(§2) Briefly, four groups were set up, each having six mice. Three of the groups included six wild-type PLA2 (+/+) mice in each group (eighteen mice total), and one of the groups included six genetically deficient PLA2 (−/−) mice. One of the wild-type groups was used as a wild-type control group, and was not treated with ILY-4001. The other two wild-type groups were treated with ILY-4001-one group at a lower dose (indicated as “L” in Table 1) of 25 mg/kg/day, and the other at a higher dose (indicated as “H” in Table 1) of 90 mg/kg/day. The group comprising the PLA2 (−/−) mice was used as a positive control group.
(§3) The experimental protocol used in this study was as follows. The four groups of mice, including wild type and isogenic PLA2 (−/−) C57BL/J mice were acclimated for three days on a low fat/low carbohydrate diet After the three day acclimation phase, the animals were fasted overnight and serum samples taken to establish baseline plasma cholesterol, triglyceride, and glucose levels, along with baseline body weight. The mice in each of the treatment groups were then fed a high fat/high sucrose diabetogenic diet (Research Diets D12331). 1000 g of the high fat/high sucrose D12331 diet was composed of casein (228 g), DL-methionine (2 g), maltodextrin 10 (170 g), sucrose (175 g), soybean oil (25 g), hydrogenated coconut oil (333.5 g), mineral mix S10001 (40 g), sodium bicarbonate (10.5 g), potassium citrate (4 g), vitamin mix V10001 (10 g), and choline bitartrate (2 g). This diet was supplemented with ILY-4001 treatments such that the average daily dose of the compound ingested by a 25 g mouse was: 0 mg/kg/day (wild-type control group and PLA2 (−/−) control group); 25 mg/kg/day (low-dose wild-type treatment group), or 90 mg/kg/day (high-dose wild-type treatment group). The animals were maintained on the high fat/high sucrose diet, with the designated ILY-4001 supplementation, for a period of ten weeks.
(§4) Body weight measurements were taken for all animals in all treatment and control groups at the beginning of the treatment period and at 4 weeks and 10 weeks after initiation of the study. (See Example 5A). Blood draws were also taken at the beginning of the treatment period (baseline) and at 4 weeks and 10 weeks after initiation of the study, in order to determine fasting glucose (See Example 5B). Cholesterol and triglyceride levels were determined from blood draws taken at the beginning of the treatment (baseline) and at ten weeks. (See Example 5C).
In the study generally described above in Example 5, body weight measurements were taken for all animals in all treatment and control groups at the beginning of the treatment period and at 4 weeks and 10 weeks after initiation of the study.

[3] = Example 5B fasting serum glucose, mice on high fat/high sucrose diabetogenic diet; type: in vivo; conditions: low dose (25 mg/kg/day)
Method: as §1, §2
The experimental protocol used in this study was as follows. […]
Body weight measurements were taken for all animals in all treatment and control groups at the beginning of the treatment period and at 4 weeks and 10 weeks after initiation of the study. […] Cholesterol and triglyceride levels were determined from blood draws taken at the beginning of the treatment (baseline) and at ten weeks. […]

[4] = Example 5C serum cholesterol and triglycerides, mice on high fat/high sucrose diabetogenic diet; type: in vivo; conditions: 10 weeks
Method: as §1, §2, §3
as §4, with “(See Example 5C).” left out

human PLA2 IB enzyme = human PLA2 IB enzyme (Homo sapiens, UniProt P04054); conditions: pyrene substrate release from vesicles; Singer, Ghomashchi et al. 2002; read-out: IC50 value versus the human PLA2 IB enzyme; cited from earlier work
Sequence of human PLA2 IB enzyme (P04054 23-148): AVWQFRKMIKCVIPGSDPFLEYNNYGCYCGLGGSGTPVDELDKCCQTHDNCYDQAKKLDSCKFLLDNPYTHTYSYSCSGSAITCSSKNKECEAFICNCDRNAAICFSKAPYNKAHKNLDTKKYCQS

mouse PLA2 IB enzyme = mouse PLA2 IB enzyme (Mus musculus, UniProt Q9Z0Y2); conditions: pyrene substrate release from vesicles; Singer, Ghomashchi et al. 2002; read-out: IC50 value versus the mouse PLA2 IB enzyme; cited from earlier work
Sequence of mouse PLA2 IB enzyme (Q9Z0Y2 23-146): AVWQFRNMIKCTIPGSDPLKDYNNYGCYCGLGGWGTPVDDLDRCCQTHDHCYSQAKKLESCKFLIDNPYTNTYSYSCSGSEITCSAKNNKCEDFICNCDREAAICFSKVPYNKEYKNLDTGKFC

Compound	stability at low pH (Stability at low pH)	apparent permeability (Caco-2 monolayers)	absorption from the GI lumen (Caco-2 monolayers; based on Caco-2 assays and pharmokinetic studies)	level of non-absorption from the GI tract into systemic circulation [1]	body weight gain compared to the wild-type control group ([2]; 25 mg/kg/d in diet)	body weight gain, extent of modulation relative to PLA2 (−/−) mice ([2]; 25 mg/kg/d, four weeks)	body weight gain compared to the wild-type control group ([2]; 90 mg/kg/d in diet)	body weight gain, extent of modulation relative to PLA2 (−/−) mice ([2]; 90 mg/kg/d, four weeks)	body weight gain, extent of modulation relative to PLA2 (−/−) mice ([2]; low-dose (25 mg/kg/d), ten weeks)	fasting glucose levels ([3]; week four)	fasting glucose levels ([3]; week ten)	plasma levels of cholesterol ([4]; high dose (90 mg/kg/day))	plasma levels of triglycerides ([4]; high dose (90 mg/kg/day))	plasma levels of cholesterol ([4]; low dose (25 mg/kg/day))	plasma levels of triglycerides ([4]; low dose (25 mg/kg/day))	IC50 (human PLA2 IB enzyme)	IC50 (mouse PLA2 IB enzyme)
Cc1c(C(=O)C(N)=O)c2c(OCC(=O)O)cccc2n1Cc1ccccc1-c1ccccc1 [ILY-4001, 2-(3-(2-amino-2-oxoacetyl)-1-(biphenyl-2-ylmethyl)-2-methyl-1H-indol-4-yloxy)acetic acid]	stable at low pH	around 1.66×10^−7 cm/s	relatively low absorption	~72%	significantly reduced body weight gains	approaching that achieved in the PLA2 (−/−) mice	significantly reduced body weight gains	approaching that achieved in the PLA2 (−/−) mice	comparable to that achieved in the PLA2 (−/−) mice	moderately beneficial effect	a beneficial effect was not observed	substantially reduced	substantially reduced	substantially reduced	substantially reduced	~200 nM	~150 nM
Lucifer Yellow		around 2.82×10^−7+/−0.37×10^−7 cm/s															
